# Values of other authors as cited in patent US20230115209A1, “[…] PSILOCIN CONTAINING COMPOSITIONS AND METHODS OF USING AND MAKING THE SAME” (Orthogonal Thinker, Inc., priority 2020, published 2023).
# Tests used:
# [1] = in vivo
# [2] = trace fear conditioning
compound,measurement,setting,value
"CN(C)CCc1c[nH]c2cccc(OP(=O)(O)O)c12 [Psilocybin, 4-phosphoryloxy-N,N-dimethyl-tryptamine]",global neural signal diversity,[1],increase global neural signal diversity
same,extinction of the classically conditioned fear response,[2],facilitates extinction of the classically conditioned fear response
